# Assay results taken from US8513232B2, “Substituted spirocyclic piperidine derivatives as histamine-3 (H3) receptor ligands” (Cephalon, Inc., priority 2008, dated 2013).
# Read-outs that look alike come from different tables or passages of the source.
# Legend:
# human H3 receptor = target: T1, human H3 receptor (Homo sapiens, UniProt Q9Y5N1); assay: Human H3 radioligand binding ([3H]-N-alpha-methylhistamine, SPA)
# T1 construct: expressed in transfected cells
# In short: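 Compounds (0.01 nM-30 μM) competed with approximately 1 nM [3H]-N-alpha-methylhistamine for human H3 receptor in membranes of stably transfected CHO cells, 10 μg protein per well, in Tris-HCl pH 7.4/MgCl2/BSA buffer for 4 h at room temperature. Bound radioligand measured by scintillation proximity; 10 μM clobenpropit gave non-specific binding.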
# [1] = target: T2, rat histamine H3 receptor (Rattus norvegicus, UniProt Q9QYN8); assay: Rat H3 radioligand binding ([3H]-N-alpha-methylhistamine, SPA)
# T2 construct: encoding the entire 445-amino-acid rat histamine H3 receptor; expressed in transfected cells; membrane preparation
# In short: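 SPA-bead binding assay using [3H]-N-alpha-methylhistamine (approximately 1 nM final) with test compounds from 0.01 nM to 30 μM. Rat H3 receptor membranes came from stably transfected CHO-A3 cells; incubation ran 4 h at room temperature, in the dark, in Tris pH 7.4 buffer with MgCl2 and BSA. Clobenpropit (10 μM) gave non-specific binding.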
# [2] = Table A, human H3 binding, read-out: Human Ki
# [3] = Table A, rat H3 binding, read-out: Rat Ki
# [4] = Human H3 binding, Table B, Examples 136-362, read-out: hum H3 binding Ki
# [5] = Rat H3 binding, Table B, Examples 136-362, read-out: rat H3 binding Ki
# [6] = human H3 binding, Table D, read-out: Human H3 Ki
# [7] = rat H3 binding, Table D, read-out: Rat H3 Ki
# [8] = Table C, human H3 binding, read-out: Human H3 Ki
# [9] = Table C, rat H3 binding, read-out: Rat H3 Ki
# T1 sequence (Q9Y5N1 whole entry): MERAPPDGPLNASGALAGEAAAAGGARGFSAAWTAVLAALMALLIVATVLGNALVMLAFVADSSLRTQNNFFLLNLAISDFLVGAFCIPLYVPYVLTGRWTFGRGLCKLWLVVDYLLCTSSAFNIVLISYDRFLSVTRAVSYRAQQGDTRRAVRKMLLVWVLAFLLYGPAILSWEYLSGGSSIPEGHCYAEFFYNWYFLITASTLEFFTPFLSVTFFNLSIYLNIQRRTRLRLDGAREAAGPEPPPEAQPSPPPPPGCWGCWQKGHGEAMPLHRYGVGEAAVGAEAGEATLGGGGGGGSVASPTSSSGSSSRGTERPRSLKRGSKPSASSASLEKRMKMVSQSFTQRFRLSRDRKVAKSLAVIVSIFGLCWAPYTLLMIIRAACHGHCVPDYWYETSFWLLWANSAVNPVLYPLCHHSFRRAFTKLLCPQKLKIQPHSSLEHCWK
# T2 sequence (Q9QYN8 whole entry): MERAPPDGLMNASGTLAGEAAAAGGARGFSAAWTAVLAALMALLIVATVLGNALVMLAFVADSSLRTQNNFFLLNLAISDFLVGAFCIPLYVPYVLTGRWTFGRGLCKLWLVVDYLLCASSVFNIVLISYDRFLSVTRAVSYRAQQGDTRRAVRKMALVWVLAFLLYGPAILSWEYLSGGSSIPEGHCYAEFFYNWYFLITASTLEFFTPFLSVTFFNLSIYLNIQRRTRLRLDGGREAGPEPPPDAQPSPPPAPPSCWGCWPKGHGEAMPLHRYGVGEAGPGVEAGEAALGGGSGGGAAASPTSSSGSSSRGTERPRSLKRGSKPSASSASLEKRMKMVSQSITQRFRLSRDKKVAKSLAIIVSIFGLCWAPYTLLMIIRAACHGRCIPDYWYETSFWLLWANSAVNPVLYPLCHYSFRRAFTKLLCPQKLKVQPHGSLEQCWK
smiles,measurement,setting,value
Cc1cn(-c2ccc3c(c2)COC2(CCN(C4CCC4)CC2)O3)cc1CO [Example 87],melting point,,133 to 135 °C
same,Ki,human H3 receptor; [2],< 200 nM
same,Ki,[1]; [3],< 200 nM
O=C(NCCO)c1ccc(-c2ccc3c(c2)COC2(CCN(C4CCC4)CC2)O3)cc1F [Example 163],melting point,,166 to 168 °C
same,Ki,human H3 receptor; [4],< 200 nM
same,Ki,[1]; [5],< 200 nM
c1cc(Oc2ccc3c(c2)CCC2(CCN(C4CCC4)CC2)O3)ccn1 [Example 273],melting point,,266 to 268 °C
same,Ki,human H3 receptor; [4],< 200 nM
same,Ki,[1]; [5],< 200 nM
CC(C)NC(=O)c1ccc(-c2ccc3c(c2)CCC2(CCN(C4CCC4)CC2)O3)cc1F [Example 355],melting point,,131 to 132 °C
same,Ki,human H3 receptor; [4],< 200 nM
same,Ki,[1]; [5],< 200 nM
CC(C)S(=O)(=O)N1CCC(Oc2ccc3c(c2)CCC2(CCN(C4CCC4)CC2)O3)CC1 [Example 440],melting point,,233 to 235 °C
same,Ki,human H3 receptor,< 200 nM
same,Ki,[1],< 200 nM
FC(F)(F)COc1cc(-c2ccc3c(c2)COC2(CCN(C4CCC4)CC2)O3)c(Cl)cn1 [Example 782],melting point,,119 to 121 °C
same,Ki,human H3 receptor; [6],< 200 nM
same,Ki,[1]; [7],< 200 nM
Cc1cc(C(=O)Nc2ccc3c(c2)COC2(CCN(C4CCC4)CC2)O3)ccn1 [Example 315],melting point,,184 to 185 °C
same,Ki,human H3 receptor; [4],< 200 nM
same,Ki,[1]; [5],< 200 nM
CO[C@H]1CCN(C(=O)c2ccc(-c3ccc4c(c3)COC3(CCN(C5CCC5)CC3)O4)cc2)C1 [Example 191],melting point,,120 to 121 °C
same,Ki,human H3 receptor; [4],< 200 nM
same,Ki,[1]; [5],< 200 nM
O=C(Nc1ccc2c(c1)COC1(CCN(C3CCC3)CC1)O2)c1ccncc1F [Example 277],melting point,,168 to 169 °C
same,Ki,human H3 receptor; [4],< 200 nM
same,Ki,[1]; [5],< 200 nM
NC(=O)COc1ccc2c(c1)CCC1(CCN(C3CCC3)CC1)O2 [Example 700],melting point,,121 to 125 °C
same,Ki,human H3 receptor; [6],< 200 nM
same,Ki,[1]; [7],< 200 nM
CNC(=O)c1ccc(Nc2ccc3c(c2)COC2(CCN(C4CCC4)CC2)O3)nc1 [Example 130],melting point,,211 to 213 °C
same,Ki,human H3 receptor; [2],< 200 nM
same,Ki,[1]; [3],< 200 nM
O=C(NCCO)c1ccc(-c2ccc3c(c2)CCC2(CCN(C4CCC4)CC2)O3)cc1 [Example 140],melting point,,145 to 147 °C
same,Ki,human H3 receptor; [4],< 200 nM
same,Ki,[1]; [5],< 200 nM
O=C(Nc1ccc2c(c1)COC1(CCN(C3CCC3)CC1)O2)C1CCOCC1 [Example 349],melting point,,228 to 229 °C
same,Ki,human H3 receptor; [4],< 200 nM
same,Ki,[1]; [5],< 200 nM
CNC(=O)c1ccc(Oc2ccc3c(c2)CCC2(CCN(C4CCC4)CC2)O3)nc1 [Example 401],melting point,,245 to 247 °C
same,Ki,human H3 receptor; [8],< 200 nM
same,Ki,[1]; [9],< 200 nM
COC(=O)c1ccc(N2CCN(c3ccc4c(c3)CCC3(CCN(C5CCC5)CC3)O4)CC2)nc1 [Example 385],melting point,,202 to 203 °C
same,Ki,human H3 receptor; [8],< 200 nM
same,Ki,[1]; [9],< 200 nM
COc1ccc(-c2ccc3c(c2)COC2(CCN(C4COC4)CC2)O3)cn1 [Example 713],melting point,,162 to 164 °C
same,Ki,human H3 receptor; [6],200 to 1000 nM
same,Ki,[1]; [7],> 1000 nM
C(=C\c1ccc2c(c1)CCC1(CCN(C3CCC3)CC1)O2)/c1ccc(OCc2ccccc2)nc1 [Example 537],melting point,,236 to 238 °C
same,Ki,human H3 receptor; read-out: Human H3 Ki,200 to 1000 nM
same,Ki,[1]; read-out: Rat H3 kI,> 1000 nM
N#Cc1cccc(C(=O)Nc2ccc3c(c2)COC2(CCN(C4CCC4)CC2)O3)c1 [Example 153],melting point,,212 to 215 °C
same,Ki,human H3 receptor; [4],< 200 nM
same,Ki,[1]; [5],< 200 nM
CNC(=O)c1ccc(-c2ccc3c(c2)CCC2(CCN(C4CCC4)CC2)O3)cc1C [Example 237],melting point,,94.7 to 95.6 °C
same,Ki,human H3 receptor; [4],< 200 nM
same,Ki,[1]; [5],< 200 nM
FC1CCN(c2ccc3c(c2)CCC2(CCN(C4CCC4)CC2)O3)CC1 [Example 397],melting point,,> 265 °C (dec.)
same,Ki,human H3 receptor; [8],< 200 nM
same,Ki,[1]; [9],< 200 nM
c1cc(Nc2ccc3c(c2)COC2(CCN(C4CCC4)CC2)O3)ncn1 [Example 129],melting point,,170 to 171 °C
same,Ki,human H3 receptor; [2],< 200 nM
same,Ki,[1]; [3],< 200 nM
O=S(=O)(c1ccc(-c2ccc3c(c2)COC2(CCN(C4CCC4)CC2)O3)cc1)N1CCCCC1 [Example 37],melting point,,85 to 90 °C
same,Ki,human H3 receptor; [2],< 200 nM
same,Ki,[1]; [3],< 200 nM
C=CCOC1(c2ccc3c(c2)COC2(CCN(C4CCC4)CC2)O3)CC(C(=O)N2CCCC2)C1 (stereo not drawn) [Example 561],melting point,,49 to 51 °C
same,Ki,human H3 receptor; read-out: Human H3 Ki,200 to 1000 nM
same,Ki,[1]; read-out: Rat H3 kI,200 to 1000 nM
Cc1nnc(COc2ccc3c(c2)CCC2(CCN(C4CCC4)CC2)O3)o1 [Example 615],melting point,,97 to 98 °C
same,Ki,human H3 receptor; [6],< 200 nM
same,Ki,[1]; [7],< 200 nM
Cc1noc(C)c1-c1ccc2c(c1)COC1(CCN(C3CCC3)CC1)O2 [Example 76],melting point,,123 to 127 °C
same,Ki,human H3 receptor; [2],< 200 nM
same,Ki,[1]; [3],< 200 nM
O=C(NCC(F)(F)F)N1CCN(c2ccc3c(c2)COC2(CCN(C4CCC4)CC2)O3)CC1 [Example 295],melting point,,182.5 to 183.5 °C
same,Ki,human H3 receptor; [4],< 200 nM
same,Ki,[1]; [5],< 200 nM
Cc1n[nH]c(C)c1-c1ccc2c(c1)CCC1(CCN(C3CCC3)CC1)O2 [Example 167],melting point,,86 to 88 °C
same,Ki,human H3 receptor; [4],< 200 nM
same,Ki,[1]; [5],< 200 nM
c1ccc(Nc2ccc3c(c2)COC2(CCN(C4CCC4)CC2)O3)cc1 [Example 124],melting point,,52 to 57 °C
same,Ki,human H3 receptor; [2],< 200 nM
same,Ki,[1]; [3],< 200 nM
COCCNC(=O)c1ccc(-c2ccc3c(c2)CCC2(CCN(C4CCC4)CC2)O3)cn1 [Example 209],melting point,,218 to 219 °C
same,Ki,human H3 receptor; [4],< 200 nM
same,Ki,[1]; [5],< 200 nM
CC(C)(O)CNC(=O)c1ccc(-c2ccc3c(c2)COC2(CCN(C4CCC4)CC2)O3)cc1 [Example 155],melting point,,156 to 158 °C
same,Ki,human H3 receptor; [4],< 200 nM
same,Ki,[1]; [5],< 200 nM
O=C(C1CCN(c2ccc3c(c2)CCC2(CCN(C4CCC4)CC2)O3)CC1)N1CCOCC1 [Example 434],melting point,,165 to 167 °C
same,Ki,human H3 receptor; [8],< 200 nM
same,Ki,[1]; [9],< 200 nM
O=C(NC1CCOCC1)c1ccc(-c2ccc3c(c2)CCC2(CCN(C4CCC4)CC2)O3)cc1 [Example 361],melting point,,205 to 207 °C
same,Ki,human H3 receptor; [4],< 200 nM
same,Ki,[1]; [5],< 200 nM
c1cc2c(cc1N1CCCC1)CCC1(CCN(C3CCC3)CC1)O2 [Example 420],melting point,,> 275 °C (dec.)
same,Ki,human H3 receptor; [8],< 200 nM
same,Ki,[1]; [9],< 200 nM
COCCNC(=O)c1cc(-c2ccc3c(c2)COC2(CCN(C4CCC4)CC2)O3)cs1 [Example 578],melting point,,145 to 146 °C
same,Ki,human H3 receptor; [6],< 200 nM
same,Ki,[1]; [7],< 200 nM
O=C(c1ccc(-c2ccc3c(c2)COC2(CCN(C4CCC4)CC2)O3)cc1F)N1CCC(O)CC1 [Example 222],melting point,,105.2 to 106.9 °C
same,Ki,human H3 receptor; [4],< 200 nM
same,Ki,[1]; [5],< 200 nM
CCNC(=O)C1CCC(O)(c2ccc3c(c2)COC2(CCN(C4CCC4)CC2)O3)CC1 (stereo not drawn) [Example 514],melting point,,195 to 196 °C
same,Ki,human H3 receptor; read-out: Human H3 Ki,< 200 nM
same,Ki,[1]; read-out: Rat H3 kI,< 200 nM
CN(C)C(=O)N1CCN(c2ccc3c(c2)COC2(CCN(C4CCC4)CC2)O3)CC1 [Example 287],melting point,,153 to 155 °C
same,Ki,human H3 receptor; [4],< 200 nM
same,Ki,[1]; [5],< 200 nM
c1csc(N2CCN(c3ccc4c(c3)CCC3(CCN(C5CCC5)CC3)O4)CC2)n1 [Example 374],melting point,,182 to 184 °C
same,Ki,human H3 receptor; [8],< 200 nM
same,Ki,[1]; [9],< 200 nM
COc1cc(-c2ccc3c(c2)COC2(CCN(C4CCC4)CC2)O3)ccc1C(=O)NC1CCOCC1 [Example 635],melting point,,86 to 88 °C
same,Ki,human H3 receptor; [6],< 200 nM
same,Ki,[1]; [7],< 200 nM
c1cc2c(cc1O[C@@H]1CCOC1)CCC1(CCN(C3CCC3)CC1)O2 [Example 443],melting point,,261 to 263 °C
same,Ki,human H3 receptor; [8],< 200 nM
same,Ki,[1]; [9],200 to 1000 nM
O=C(N[C@@H]1CCOC1)c1ccc(-c2ccc3c(c2)COC2(CCN(C4CCC4)CC2)O3)cc1Cl [Example 605],melting point,,189 to 191 °C
same,Ki,human H3 receptor; [6],< 200 nM
same,Ki,[1]; [7],< 200 nM
COCc1cc(=O)[nH]cc1-c1ccc2c(c1)COC1(CCN(C3CCC3)CC1)O2 [Example 798],melting point,,217 to 219 °C
same,Ki,human H3 receptor; [6],< 200 nM
same,Ki,[1]; [7],< 200 nM
O=c1cc(-c2ccc3c(c2)COC2(CCN(C4CCC4)CC2)O3)c(Cl)c[nH]1 [Example 667],melting point,,130 to 132 °C
same,Ki,human H3 receptor; [6],< 200 nM
same,Ki,[1]; [7],< 200 nM
Cc1cnc(C)c(-c2ccc3c(c2)COC2(CCN(C4CCC4)CC2)O3)n1 [Example 752],melting point,,102 to 103 °C
same,Ki,human H3 receptor; [6],< 200 nM
same,Ki,[1]; [7],< 200 nM
COc1ccc(-c2ccc3c(c2C)COC2(CCN(C4CCC4)CC2)O3)cn1 [Example 551],melting point,,231 to 232 °C
same,Ki,human H3 receptor; read-out: Human H3 Ki,< 200 nM
same,Ki,[1]; read-out: Rat H3 kI,< 200 nM
O=C(C1CC1)N1CCN(c2ccc3c(c2)CCC2(CCN(C4CCC4)CC2)O3)CC1 [Example 376],melting point,,169 to 171 °C
same,Ki,human H3 receptor; [8],< 200 nM
same,Ki,[1]; [9],< 200 nM
COc1cccc(N2CCN(c3ccc4c(c3)CCC3(CCN(C5CCC5)CC3)O4)CC2)n1 [Example 382],melting point,,243 to 245 °C
same,Ki,human H3 receptor; [8],< 200 nM
same,Ki,[1]; [9],< 200 nM
COc1ccc2nc(C)n(-c3ccc4c(c3)COC3(CCN(C5CCC5)CC3)O4)c(=O)c2c1 [Example 794],melting point,,155 to 157 °C
same,Ki,human H3 receptor; [6],< 200 nM
same,Ki,[1]; [7],< 200 nM
Cc1nc2ccccc2c(=O)n1-c1ccc2c(c1)COC1(CCN(C3CCC3)CC1)O2 [Example 787],melting point,,206 to 207 °C
same,Ki,human H3 receptor; [6],< 200 nM
same,Ki,[1]; [7],< 200 nM
